According to PMC12778052 (Science Advances, 2026):
Starred links: 1 amine or outer side, 2 acyl side, 3 side chain; linkers in the order of their positions; H or OH if unused. Positions of bridges follow the written chain, without caps; N, C: chain ends. Non-standard residues stand in square brackets, D forms with d. Primed or numbered codes have the meaning given here. *: point of attachment. TATA = O=C(CC[*:1])N1CN(C(=O)CC[*:2])CN(C(=O)CC[*:3])C1; NOTA = O=C(O)CN1CCN(CC(=O)O)CCN(CC(=O)*)CC1; Hyp = O=C(O)[C@@H]1C[C@@H](O)CN1; hArg = N=C(N)NCCCC[C@H](N)C(=O)O; PEG12′ = not defined here; Nal = naphthylalanine

T1: human Nectin-4 (Homo sapiens, UniProt Q96NY8)
T1 construct: purchased R&D Systems 2659-N4-050
T1 sequence (Q96NY8 32-349 limits assumed): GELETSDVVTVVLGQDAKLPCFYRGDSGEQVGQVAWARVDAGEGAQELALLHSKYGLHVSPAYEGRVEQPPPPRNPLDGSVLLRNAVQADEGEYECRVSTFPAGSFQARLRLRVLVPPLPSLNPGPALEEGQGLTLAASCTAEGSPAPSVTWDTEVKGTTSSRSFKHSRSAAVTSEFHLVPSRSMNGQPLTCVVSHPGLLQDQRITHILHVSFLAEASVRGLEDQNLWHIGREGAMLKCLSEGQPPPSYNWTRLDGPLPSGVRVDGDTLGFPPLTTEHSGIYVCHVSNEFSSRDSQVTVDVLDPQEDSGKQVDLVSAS

T2: mouse Nectin-4 (Mus musculus, UniProt Q8R007)
T2 construct: purchased R&D Systems 3116-N4-050
T2 sequence (Q8R007 31-347 limits assumed): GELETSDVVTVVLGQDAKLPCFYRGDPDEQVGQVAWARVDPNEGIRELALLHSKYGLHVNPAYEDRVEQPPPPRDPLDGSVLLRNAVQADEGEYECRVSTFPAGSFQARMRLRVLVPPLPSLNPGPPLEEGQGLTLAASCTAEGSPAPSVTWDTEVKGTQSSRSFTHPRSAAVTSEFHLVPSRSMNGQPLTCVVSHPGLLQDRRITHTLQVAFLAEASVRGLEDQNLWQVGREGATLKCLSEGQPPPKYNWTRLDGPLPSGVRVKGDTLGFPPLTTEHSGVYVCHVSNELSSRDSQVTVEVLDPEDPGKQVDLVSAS

T3: His-tagged mouse Nectin-4 (R&D Systems, catalog no. 3116-N4-050) (mouse, UniProt Q8R007 31-347)
T3 chain: T2 sequence (Q8R007 31-347 limits assumed)

T4: His-tagged human Nectin-4 (R&D Systems, catalog no. 2659-N4-050) (human, UniProt Q96NY8 32-349)
T4 chain: T1 sequence (Q96NY8 32-349 limits assumed)


Legend:
human Nectin-4 = biological target: T1, human Nectin-4; assay: SPR affinity for recombinant human Nectin-4; assay type: binding; conditions: Biacore T200, CM5 chip, 25°C, His-tagged recombinant protein captured, 1:1 kinetics fit, n = 3
Procedure: (§1) The affinity of AJ647 for human and mouse Nectin-4 recombinant proteins was evaluated by SPR. The experiments were conducted using a Biacore T200 instrument with a CM5 chip at 25°C. The ligands used were His-tagged human Nectin-4 (R&D Systems, catalog no. 2659-N4-050, 44 kDa, 0.2 mg/ml stock concentration) and mouse Nectin-4 proteins (R&D Systems, catalog no. 3116-N4-050, 45 kDa, 0.2 mg/ml stock concentration), which were immobilized onto the CM5 chip. AJ647 (3057.5 Da, 10 mM stock concentration) was used as the analyte, which flowed over the ligand-immobilized surface. FC2 and FC4 was used as the experimental flow cell, while FC1 and FC3 served as the reference. An anti-His antibody (1 mg/ml stock concentration) was immobilized on all flow cells using standard amine coupling chemistry. […] Human Nectin-4 was captured onto FC2 at a level of ~600 RU, with a 1:20 dilution and 10 μg/ml diluted concentration in PBS-P. Mouse Nectin-4 was captured onto FC4 at a level of 600 RU, with a 1:20 dilution and 10 μg/ml diluted concentration in PBS-P. The theoretical maximum response (Rmax ) values were calculated on the basis of the captured response values (table S1), assuming a 1:1 interaction mechanism. […] All association and dissociation kinetics were evaluated by 1:1 kinetics model fitting.

[1] = test system: bladder cancer cell lines; assay: In vitro blocking of [^68Ga]AJ647 uptake by nonradioactive AJ647; assay type: cell-based; conditions: 2 μM nonradioactive AJ647 (0.2 nmol, blocking dose)
Procedure: In vitro binding of [^68Ga]AJ647 to T24, SCaBER, RT112, UC9, UC14, and HT1376 cells was determined by incubating 1 × 10^6 cells with ~1 μCi of [^68Ga]AJ647 for 30 min at 4°C. After incubation, cells were washed three times with ice-cold PBS containing 0.1% Tween 20 and counted on an automated gamma counter. All cell radioactivity uptake studies were performed in quadruplicate for each cell line and repeated three times.

HT1376 xenografts = assay: In vivo blocking of [^68Ga]AJ647 uptake by nonradioactive AJ647, PET; design: species or system NSG mice; conditions: nonradioactive AJ647 2 mg/kg pre-injected; PET-MR 60 min
Procedure: Mice with tumor volumes of ~100 to 150 mm^3 were injected with ~200 μCi [7.4 megabecquerels (MBq)] of [^68Ga]AJ647 in […] of 5% ethanol in saline intravenously and anesthetized under 2.5% isoflurane. PET-computed tomography (CT) images were acquired at 60 min after radiotracer injection at 5 min per bed in an ARGUS small-animal PET/CT scanner (Sedecal, Madrid, Spain) as described previously (n = 3, unless otherwise noted). PET-MR images were acquired on a simultaneous 7T Bruker PET-MR scanner. Dynamic imaging was conducted to evaluate the PK of [^68Ga]AJ647. [^68Ga]AJ647 was injected (with the help of a catheter) after mice were anesthetized under 2.5% isoflurane on the equipment bed. All PET data were reconstructed using the two-dimensional (2D) ordered subset expectation maximization algorithm and corrected for radioactive decay and dead times. The SUV values were calculated by finding %IA on the basis of a calibration factor obtained from a known radioactive quantity and then normalizing by mice weight. Amide software was used to derive SUV values by drawing the region of interest to closely fit tumors. […] For the change in accessible Nectin-4 following EV treatment, ΔSUV was calculated by subtracting baseline (pre-treatment) uptake from posttherapy uptake of [^68Ga]AJ647. TE was quantified by normalizing this change by initial SUV in the same subject controls. […]

mouse Nectin-4 = biological target: T2, mouse Nectin-4; assay: SPR affinity for recombinant mouse Nectin-4; assay type: binding; conditions: Biacore T200, CM5 chip, 25°C, His-tagged recombinant protein captured, 1:1 kinetics fit, n = 3
Procedure: as §1

[2] = biological target: T3, His-tagged mouse Nectin-4 (R&D Systems, …); assay: SPR
[3] = biological target: T4, His-tagged human Nectin-4 (R&D Systems, …); assay: SPR

koff [2] [s⁻¹]	koff [3] [s⁻¹]	Molecule	Kd (human Nectin-4) [nM]	effect of co-incubation on radiotracer uptake [1]	effect on [^68Ga]AJ647 uptake in HT1376 xenografts (HT1376 xenografts)	Kd (mouse Nectin-4) [nM]
		CSCC[C@@H]1NC(=O)[C@@H]2CSCCC(=O)N3CN(CN(C3)C(=O)CCSC[C@H](NC(=O)CCOCCOCCOCCOCCOCCOCCOCCOCCOCCOCCOCCOCCNC(=O)CN3CCN(CC(=O)O)CCN(CC(=O)O)CC3)C(=O)N3CCC[C@H]3C(=O)N[C@@H](Cc3cccc4ccccc34)C(=O)N[C@@H](CC(=O)O)C(=O)N2)C(=O)CCSC[C@@H](C(N)=O)NC(=O)[C@H](Cc2c[nH]c3ccccc23)NC(=O)[C@@H]2C[C@@H](O)CN2C(=O)[C@@H]2CCCN2C(=O)[C@H]([C@@H](C)O)NC(=O)[C@H](CO)NC(=O)[C@H](Cc2c[nH]c3ccccc23)NC(=O)[C@@H](CC(=O)O)NC(=O)[C@H](CCCCNC(=N)N)NC1=O [AJ647]	15 ± 10.1	significantly reduced radiotracer uptake	reduction in tracer uptake	14.1 ± 3.4
0.0101	0.0106	{NOTA-PEG12′}-CP[Nal]DCM[hArg]DWSTP[Hyp]WC-NH2 (linker 1-5-15 via TATA; not fully specified (residue 8)) [AJ647 (NOTA-PEG12 conjugate of the bicyclic peptide AJ632)]				
